Assay results: patent US20050143450A1, “Alkyl PCDF as a treatment for prostate cancer” (priority 2002, published 2005)
Like-named read-outs stand apart in the source and are kept apart here.

Assays:
AR [1] = target: T1, AR (Homo sapiens, UniProt P10275, T878A); assay type: cell-based; details: LNCaP; for effect on DHT-induced luciferase activity: pARR3, cotreatment with DHT; for effect on E2-induced luciferase activity: pARR3, cotreatment with E2
T1 construct: AR protein levels in whole cell lysates were determined by Western blot analysis; endogenous in cells; host or cells: LNCaP
T1 sequence (P10275 1-920 T878A): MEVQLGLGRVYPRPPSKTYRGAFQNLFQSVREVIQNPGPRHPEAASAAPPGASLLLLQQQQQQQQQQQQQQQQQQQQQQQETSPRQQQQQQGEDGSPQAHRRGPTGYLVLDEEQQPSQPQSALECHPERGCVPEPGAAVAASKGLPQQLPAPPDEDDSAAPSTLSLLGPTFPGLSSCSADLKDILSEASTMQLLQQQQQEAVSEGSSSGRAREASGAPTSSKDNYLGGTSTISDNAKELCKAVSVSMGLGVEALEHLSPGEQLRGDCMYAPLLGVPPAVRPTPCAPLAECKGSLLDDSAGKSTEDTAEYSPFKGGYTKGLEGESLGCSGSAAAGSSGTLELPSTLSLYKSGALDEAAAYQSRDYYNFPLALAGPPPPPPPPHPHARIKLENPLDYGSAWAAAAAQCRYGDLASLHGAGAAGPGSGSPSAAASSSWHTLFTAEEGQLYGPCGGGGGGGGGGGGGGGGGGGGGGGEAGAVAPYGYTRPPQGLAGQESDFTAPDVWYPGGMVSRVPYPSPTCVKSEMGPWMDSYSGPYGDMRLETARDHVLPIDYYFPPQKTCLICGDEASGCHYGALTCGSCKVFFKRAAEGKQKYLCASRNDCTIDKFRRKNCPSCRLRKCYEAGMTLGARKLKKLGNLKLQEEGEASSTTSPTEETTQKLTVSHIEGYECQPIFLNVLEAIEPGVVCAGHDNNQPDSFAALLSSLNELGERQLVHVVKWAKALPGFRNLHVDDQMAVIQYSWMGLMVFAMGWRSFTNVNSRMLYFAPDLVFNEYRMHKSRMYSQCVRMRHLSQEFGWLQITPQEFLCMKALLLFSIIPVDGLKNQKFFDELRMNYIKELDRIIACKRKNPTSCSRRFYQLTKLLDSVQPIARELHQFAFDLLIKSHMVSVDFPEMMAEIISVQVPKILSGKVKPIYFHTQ
Description: (§1) After 24 h, cells were transfected using Lipofectamine and Plus reagents (Invitrogen) according to manufacturer's instructions. LNCaP and ZR-75 cells were transfected with 500 ng/well of either reporter plasmid, and 250 ng/well of pcDNA3.1-β-gal (Invitrogen) as the internal control. In addition, ZR-75 cells were transfected with 500 ng hAR. Twenty-four hours after treatment, cells were harvested by scraping with 200 μL/well of reporter lysis buffer. Lysates were centrifuged at 40,000 g and luciferase and β-galactosidase activity was assayed with 30 μL of the supernatant extract per sample using a Lumicount luminometer (PerkinElmer, Boston, Mass.). Luciferase activity was normalized to β-galactosidase activity for each transfection well.
Next, LNCaP cells were transfected with pARR3 construct that contained three tandem (3) copies of the probasin androgen response element. The transfected cells were treated with hormone or AhR agonist alone or in combination and luciferase activity was determined as described in the above examples.

AR [2] = test: AR protein levels in LNCaP cells by Western blot; assay type: cell-based, human; details: 6 h; for AR protein levels, compound alone: DHT 10 nM, E2 10 nM, TCDD 10 nM, 6-MCDF 2 μM, HPTE 10 μM
Description: Cells were harvested 6 h after treatment using 200 μL/22-mm well of ice cold lysis buffer (50 mM HEPES, pH 7.5, 500 mM NaCl, 10% (v/v) glycerol, 1% (v/v) Triton-X 100, 1.5 mM MgCl2, 1 mM EGTA) (McDougal et al., 2001). Lysates were centrifuged at 40,000 g, and supernatant was collected as extract. Whole cell extracts (50 μg/sample) were separated by electrophoresis on a tiered 7.5% (top)/12.5% (bottom) SDS-polyacrylamide gel and transferred to PVDF membrane (Bio-Rad, Richmond, Calif.). The membrane was blocked with 5% milk (m/v) in tris-buffered saline 0.05% Tween (TBST). Membranes were incubated with primary antibodies for AR (sc-7305), cyclin D1 (sc-718), or p27 (sc-528) (each from Santa Cruz Biotechnology, Santa Cruz, Calif.) at 1:1000 in 5% milk/TBST for 3 h. Membranes were washed twice in TBST. Horseradish peroxidase (HRP)-conjugated secondary antibodies were applied at 1:5000 in 5% milk/TBST for 1 h. After two TBST washes, PVDF-bounded antibodies were detected using a chemiluminescence kit (Western Lightning, PerkinElmer), ImageTek-H film (American X-Ray and Medical Supply, Rancho Cordova, Calif.) and an autoprocessor (Hope Macro-Med, Warminster, Pa.). Quantitation of the Western blot was performed using a Sharp JX-330 scanner (Sharp, Mahwah, N.J.) and Zero-D software (Scanalytics, Billerica, Mass.).

AR [3] = target: T1, AR; assay type: cell-based; details: LNCaP, pPB; for effect on E2-induced luciferase activity: cotreatment with 10 nM E2
Description: as §1
The transfected cells were then treated with hormone or AhR agonist alone or in combination and luciferase activity was determined as described in the above examples.

22Rv1 cells = test: Growth inhibition of 22Rv1 prostate cancer cells; assay type: cell-based
Description: 22Rv1 cells were treated with various concentrations of TCDD.
In a second study, 22Rv1 cells were maintained in 10% serum, and various concentrations of 6-MCDF were added to the cells.

LNCaP cells = assay type: cell-based, human; details: six days; for growth of LNCaP cells in the presence of DHT: 10 nM DHT; for proliferation of LNCaP cells: absence of DHT, TCDD 1-100 nM
Description: After trypsinization and low-speed centrifugation, LNCaP cells were resuspended and counted using a Coulter cell counter (Beckman Coulter, Fullerton, Calif.). Cells were seeded at a density of 5×10^4/35-mm well using DME-F12 without phenol red, supplemented with 2.5% charcoal-stripped fetal bovine serum (FBS). Twenty-four hours after seeding, initial treatment was applied and then subsequently reapplied with fresh medium every two days until harvesting by trypsinization. Cells were counted after harvesting using a Coulter counter.

Row | Compound | effect on DHT-induced luciferase activity (AR [1]) | effect on E2-induced luciferase activity (AR [1]) | AR levels in combination with DHT compared to DHT alone (AR [2]) | AR protein levels, compound alone (AR [2]) | effect on E2-induced luciferase activity (AR [3]; HPTE 10 μM) | induction of luciferase activity by AhR agonist alone (AR [3]; MCDF 2 μM) | 22Rv1 cell proliferation (22Rv1 cells; cells maintained in 10% serum, various concentrations) | growth of LNCaP cells in the presence of DHT (LNCaP cells) | proliferation of LNCaP cells (LNCaP cells) | AR levels in combination with E2 compared to E2 alone (AR [2]) | effect on DHT-induced luciferase activity (AR [3]; cotreatment with 10 nM DHT, MCDF 2 μM, HPTE 10 μM) | testosterone-induced growth of 22Rv1 cells (22Rv1 cells; 1 nM) | constitutive growth of 22Rv1 cells (22Rv1 cells; 1 nM alone)
1 | Cc1cc(Cl)cc2c1oc1cc(Cl)cc(Cl)c12 [6-MCDF, 6-methyl-1,3,8-trichlorodibenzofuran] | did not decrease | not a significant decrease | significant decrease | did not significantly affect | significantly decreased | did not significantly induce activity | concentration-dependent decrease | inhibited growth | growth inhibition was also observed | – | – | – | –
2 | Clc1cc2c(cc1Cl)Oc1cc(Cl)c(Cl)cc1O2 [TCDD, 2,3,7,8-tetrachloro-p-dioxin] | did not decrease | not a significant decrease | significant decrease | did not significantly affect | significantly decreased | did not significantly induce activity | – | inhibited growth | significantly inhibited | decreased | significantly inhibited | inhibited | inhibited
